Test results from US4130709A, “Pleuromutilin glycoside derivatives” (Eli Lilly and Company, priority 1977, dated 1978).
In brackets after ≈: the same amount, converted by molar mass.

What was measured:
Format in all cases: cell-based
[1] = test system: Staphylococcus aureus (H-Heatley) NRRL B-314; experiment: in vitro turbidometric assay (Autoturb Microbiological Assay System) against Staphylococcus aureus; settings: nutrient broth pH 7, approximately 4 hours at 37° C., A-40104 factor A as standard
Protocol: The compounds are conveniently tested against a typical gram-positive organism, Staphylococcus aureus, using a turbidometric assay on a semi-automated system (Autoturb Microbiological Assay System, Elanco) described by N. R. Kuzel and F. W. Kavanagh in J. Pharmaceut. Sci, 60 (5), 764 and 767 (1971). In testing these compounds, the following parameters were used: Staphylococcus aureus (H-Heatley) NRRL B-314 in a nutrient broth medium (pH 7), incubated for approximately 4 hours at 37° C. Test samples and A-40104 factor A, which is used as a standard, were dissolved in water. The standard was presented to the Autoturb carrousel at concentrations of 1.25, 2.50, 3.75, 5.00 and 6.25 mcg/ml. Test compounds were diluted to contain approximately 2.5 to 5.0 mcg of activity per ml, as presented to the carrousel. The units of activity of some of the typical compounds of this invention (R^2 =H in group tested) in this in vitro assay are summarized in Table I

Actinomyces israelii = experiment: standard agar-dilution test, anaerobic bacteria; settings: 24-hour incubation
Clostridium perfringens = experiment: microbe, parasite or virus in culture; settings: 24 h
[2] = test system: Bacteroides thetaiotaomicron; experiment: standard agar-dilution test, anaerobic bacteria; settings: 24-hour incubation
Protocol: (§1) Table IV summarizes the activity of typical compounds of this invention, as determined by the standard agar-dilution test.
(§2) *Endpoint read after 24-hour incubation

Clostridium septicum = experiment: standard agar-dilution test, anaerobic bacteria; settings: 24-hour incubation
Protocol: as §1, §2

Eubacterium aerofaciens = experiment: standard agar-dilution test, anaerobic bacteria; settings: Collinsella aerofaciens, 24 h
[3] = test system: Peptococcus asaccharolyticus; experiment: standard agar-dilution test, anaerobic bacteria; settings: Peptoniphilus asaccharolyticus, 24-hour incubation
Peptococcus prevoti = experiment: standard agar-dilution test, anaerobic bacteria; settings: Peptococcus prevoti; 24-hour incubation; read-out: MIC
[4] = test system: Peptostreptococcus anaerobius; experiment: standard agar-dilution test, anaerobic bacteria; settings: 24-hour incubation
[5] = test system: Peptostreptococcus intermedius; experiment: standard agar-dilution test, anaerobic bacteria; settings: Peptostreptococcus intermedius; 24-hour incubation; read-out: MIC
Bacteroides fragilis 111 = experiment: standard agar-dilution test, anaerobic bacteria; settings: Bacteroides fragilis, 111, 24 h
[6] = test system: Bacteroides fragilis 1877; experiment: standard agar-dilution test, anaerobic bacteria; settings: Bacteroides fragilis 1877; 24-hour incubation; read-out: MIC
[7] = test system: Bacteroides fragilis 1936B; experiment: standard agar-dilution test, anaerobic bacteria; settings: Bacteroides fragilis 1936B; 24-hour incubation; read-out: MIC
[8] = test system: Bacteroides melaninogenicus 1856/28; experiment: standard agar-dilution test, anaerobic bacteria; settings: Prevotella intermedia, 1856/28, 24 h
[9] = test system: Bacteroides melaninogenicus 2736; experiment: standard agar-dilution test, anaerobic bacteria; settings: Bacteroides melaninogenicus 2736; 24-hour incubation; read-out: MIC
Bacteroides vulgatis = experiment: standard agar-dilution test, anaerobic bacteria; settings: Bacteroides vulgatis; 24-hour incubation; read-out: MIC
Bacteroides corrodens = experiment: standard agar-dilution test, anaerobic bacteria; settings: Eikenella corrodens; Bacteroides corrodens; 24-hour incubation; read-out: MIC
Fusobacterium symbiosum = experiment: standard agar-dilution test, anaerobic bacteria; settings: Fusobacterium, 24 h
[10] = test system: Fusobacterium necrophorum; experiment: standard agar-dilution test, anaerobic bacteria; settings: 24-hour incubation, read-out: MIC
Mycoplasma gallisepticum = experiment: in vitro broth-dilution studies, mycoplasma; settings: Mycoplasmoides gallisepticum
Text: (§3) The minimal inhibitory concentrations (MIC's) of a number of typical compounds of the present invention (R^2 =H in group tested) against various mycoplasma species, as determined by in vitro broth-dilution studies, are summarized in Table V.

Mycoplasma hyorhinis = experiment: in vitro broth-dilution studies, mycoplasma
Text: as §3

Mycoplasma synoviae = experiment: in vitro broth-dilution studies, mycoplasma; settings: Mycoplasmopsis synoviae
Text: as §3

Spiroplasma citri = experiment: in vitro inhibition of Spiroplasma citri measured by a color reaction; parameters: key to Activity (color reaction): Red (R) includes complete inhibition; red-orange (RO) indicates partial inhibition; yellow (Y) indicates no inhibition
Protocol: In another important aspect, the compounds of this invention are active against Spiroplasmas. Spiroplasma citri is the causative agent of citrus-stubborn disease; another Spiroplasma, corn-stunt Spiroplasma, affects the growth of corn. Table VII summarizes the in vitro activity of representative compounds of the present invention (R^2 =H in this group) against Spiroplasma citri. In this test, inhibition of S. citri is measured by a color reaction. Red (R) includes complete inhibition; red-orange (RO) indicates partial inhibition; and yellow (Y) indicates no inhibition.

C=C[C@]1(C)C[C@@H](OC(=O)CS[C@@H]2O[C@H](COC(C)=O)[C@@H](OC(C)=O)[C@H](OC(C)=O)[C@H]2OC(C)=O)[C@]2(C)[C@H](C)CC[C@]3(CCC(=O)[C@H]32)[C@@H](C)[C@@H]1O [Compound 11, 14-deoxy-14-[(2,3,4,6-tetra-O-acetyl-β-D-glucopyranosyl)thioacetoxy]mutilin]
Units of Activity [1]: 253 to 265 µg/mg
MIC (Actinomyces israelii): ≤ 0.5 µg/mL
MIC (Clostridium perfringens): > 128 µg/mL
MIC [2]: 16 µg/mL (≈ 22.1 µM)
MIC (Clostridium septicum): 16 µg/mL (≈ 22.1 µM)
MIC (Eubacterium aerofaciens): > 128 µg/mL
MIC [3]: ≤ 0.5 µg/mL
MIC (Peptococcus prevoti): ≤ 0.5 µg/mL
MIC [4]: ≤ 0.5 µg/mL
MIC [5]: 1 µg/mL (≈ 1.38 µM)
MIC (Bacteroides fragilis 111): 128 µg/mL (≈ 177 µM)
MIC [6]: 32 µg/mL (≈ 44.1 µM)
MIC [7]: 32 µg/mL (≈ 44.1 µM)
MIC [8]: > 128 µg/mL
MIC [9]: 16 µg/mL (≈ 22.1 µM)
MIC (Bacteroides vulgatis): 32 µg/mL (≈ 44.1 µM)
MIC (Bacteroides corrodens): 32 µg/mL (≈ 44.1 µM)
MIC (Fusobacterium symbiosum): 128 µg/mL (≈ 177 µM)
MIC [10]: 16 µg/mL (≈ 22.1 µM)
MIC (Mycoplasma gallisepticum): > 0.78 µg/mL
MIC (Mycoplasma hyorhinis): > 0.78 µg/mL
MIC (Mycoplasma synoviae): 1.56 µg/mL (≈ 2.15 µM)

C=C[C@]1(C)C[C@@H](OC(=O)CO[C@H]2O[C@H](COCc3ccccc3)[C@@H](OCc3ccccc3)[C@H](OCc3ccccc3)[C@H]2OCc2ccccc2)[C@]2(C)[C@H](C)CC[C@]3(CCC(=O)[C@H]32)[C@@H](C)[C@@H]1O [Example 1, 14-deoxy-14-[(2,3,4,6-tetra-O-benzyl-α-D-glucopyranosyl)oxyacetoxy]mutilin]
MIC (Mycoplasma gallisepticum): 25 µg/mL (≈ 27.7 µM)
MIC (Mycoplasma hyorhinis): 50 µg/mL (≈ 55.5 µM)
MIC (Mycoplasma synoviae): 50 µg/mL (≈ 55.5 µM)

C=C[C@]1(C)C[C@@H](OC(=O)CO[C@@H]2O[C@H](COC(C)=O)[C@@H](OC(C)=O)[C@H](OC(C)=O)[C@H]2OC(C)=O)[C@]2(C)[C@H](C)CC[C@]3(CCC(=O)[C@H]32)[C@@H](C)[C@@H]1O [Example 3, 14-deoxy-14-[(2,3,4,6-tetra-O-acetyl-β-D-glucopyranosyl)oxyacetoxy]mutilin]
Units of Activity [1]: 75 to 85 µg/mg
MIC (Mycoplasma gallisepticum): 0.78 µg/mL (≈ 1.1 µM)
MIC (Mycoplasma hyorhinis): 0.78 µg/mL (≈ 1.1 µM)
MIC (Mycoplasma synoviae): 0.78 µg/mL (≈ 1.1 µM)
Activity (color reaction) (Spiroplasma citri; 1.0 ppm): R

C=C[C@]1(C)C[C@@H](OC(=O)CO[C@@H]2O[C@H](CO)[C@@H](O)[C@H](O)[C@H]2O)[C@]2(C)[C@H](C)CC[C@]3(CCC(=O)[C@H]32)[C@@H](C)[C@@H]1O [Example 4, 14-deoxy-14-[(β-D-glucopyranosyl)oxyacetoxy]-mutilin]
Units of Activity [1]: 12 to 13 µg/mg
MIC (Mycoplasma gallisepticum): 0.39 µg/mL (≈ 0.721 µM)
MIC (Mycoplasma hyorhinis): 0.78 µg/mL (≈ 1.44 µM)
MIC (Mycoplasma synoviae): 0.78 µg/mL (≈ 1.44 µM)
Activity (color reaction) (Spiroplasma citri; 0.1 ppm): Y
Activity (color reaction) (Spiroplasma citri; 1.0 ppm): R
